Measurements: the supplement of paper PMC10307832

Columns and labels:
Experiment in all cases: relative viability (nuclei count vs DMSO), 5 days (fraction); higher = more cells survive
[1] = compound: CN(C)CC1=CC(=CC=C1)N=C(C2=CC=CC=C2)C3=C(NC4=C3C=CC(=C4)C(=O)N(C)C)O + CC(=O)c1c(C)c2cnc(Nc3ccc(N4CCNCC4)cn3)nc2n(C2CCCC2)c1=O [Palbociclib] (partner 0.5 µM)
In short: (§1)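 Medians of duplicate plates are given as relative viability. That measure is the nuclei count in treated wells divided by the count in vehicle wells. Counts were taken on 4× images of lung cancer cell lines in 1536-well plates, 5 days after pin-tool dosing the day after seeding with one drug alone or a fixed anchor-drug dose plus five library-drug doses (not always all listed) in √10 steps.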

[2] = compound: CN(C)CC1=CC(=CC=C1)N=C(C2=CC=CC=C2)C3=C(NC4=C3C=CC(=C4)C(=O)N(C)C)O + C[C@@H](Oc1cc(-c2cnn(C3CCNCC3)c2)cnc1N)c1c(Cl)ccc(F)c1Cl [Crizotinib] (partner 1 µM)
In short: as §1

[3] = compound: CN(C)CC1=CC(=CC=C1)N=C(C2=CC=CC=C2)C3=C(NC4=C3C=CC(=C4)C(=O)N(C)C)O + NC(=O)Nc1cc(-c2cccc(F)c2)sc1C(=O)N[C@H]1CCCNC1 [AZD7762] (partner 0.2 µM)
In short: as §1

[4] = compound: CN(C)CC1=CC(=CC=C1)N=C(C2=CC=CC=C2)C3=C(NC4=C3C=CC(=C4)C(=O)N(C)C)O + O=C(CCCCCCC(=O)Nc1ccccc1)NO [Vorinostat] (partner 1 µM)
In short: as §1

Cell Line | relative viability ([1]; first compound 0.08 µM) | relative viability ([1]; first compound 0.253 µM) | relative viability ([1]; first compound 0.8 µM) | relative viability ([1]; first compound 2.53 µM) | relative viability ([1]; first compound 8 µM) | relative viability ([2]; first compound 0.08 µM) | relative viability ([2]; first compound 0.253 µM) | relative viability ([2]; first compound 0.8 µM) | relative viability ([2]; first compound 2.53 µM) | relative viability ([2]; first compound 8 µM) | relative viability ([3]; first compound 0.08 µM) | relative viability ([3]; first compound 0.253 µM) | relative viability ([3]; first compound 0.8 µM) | relative viability ([3]; first compound 2.53 µM) | relative viability ([3]; first compound 8 µM) | relative viability ([4]; first compound 0.08 µM) | relative viability ([4]; first compound 0.253 µM) | relative viability ([4]; first compound 0.8 µM) | relative viability ([4]; first compound 2.53 µM) | relative viability ([4]; first compound 8 µM)
NCI-H2085 | 0.452 | 0.492 | 0.476 | 0.5 | 0.559 | 0.849 | 0.903 | 0.702 | 0.947 | 1.03 | 1.03 | 0.978 | 0.995 | 0.988 | 0.969 | 0.785 | 0.777 | 0.785 | 0.819 | 0.773
NCI-H2087 | 0.233 | 0.236 | 0.214 | 0.289 | 0.263 | 0.817 | 0.838 | 0.828 | 0.72 | 0.872 | 1.13 | 1.28 | 1.36 | 1.45 | 1.33 | 0.53 | 0.668 | 0.69 | 0.796 | 0.846
NCI-H2126 | 0.373 | 0.362 | 0.286 | 0.363 | 0.36 | 1.04 | 1.01 | 1.07 | 1.01 | 1.01 | 0.974 | 0.96 | 0.931 | 0.943 | 0.976 | 0.822 | 0.767 | 0.475 | 0.8 | 0.554
NCI-H2170 | 0.443 | 0.384 | 0.341 | 0.368 | 0.397 | 1.2 | 1.15 | 0.934 | 1.11 | 0.922 | 0.921 | 0.88 | 0.589 | 0.867 | 0.682 | 0.93 | 0.884 | 0.693 | 0.829 | 0.643
NCI-H2347 | 0.428 | 0.389 | 0.445 | 0.456 | 0.518 | 0.734 | 0.727 | 0.73 | 0.703 | 0.58 | 0.898 | 0.647 | 0.7 | 0.719 | 0.734 | 0.604 | 0.736 | 0.617 | 0.539 | 0.565
NCI-H2405 | 0.545 | 0.562 | 0.513 | 0.467 | 0.478 | 0.808 | 0.822 | 0.827 | 0.775 | 0.758 | 0.715 | 0.72 | 0.713 | 0.659 | 0.681 | 1.1 | 1.01 | 1.06 | 0.987 | 1.01
NCI-H3122 | 0.17 | 0.15 | 0.204 | 0.17 | 0.226 | 0.281 | 0.286 | 0.246 | 0.318 | 0.29 | 1.01 | 0.967 | 1.03 | 1.02 | 1.07 | 0.966 | 0.947 | 1.17 | 0.905 | 0.898
PC-3 [JPC-3] | 0.543 | 0.573 | 0.534 | 0.557 | 0.602 | 0.968 | 0.983 | 0.824 | 0.985 | 1.07 | 0.872 | 0.938 | 0.753 | 0.806 | 1.02 | 0.853 | 0.834 | 0.682 | 0.883 | 1.03
PC-14 | 0.474 | 0.412 | 0.635 | 0.614 | 0.537 | 0.948 | 0.885 | 0.842 | 0.786 | 1.01 | 0.392 | 0.395 | 0.377 | 0.387 | 0.411 | 0.576 | 0.675 | 0.833 | 0.687 | 0.592
RERF-LC-KJ | 1.08 | 1.05 | 1.01 | 0.992 | 0.982 | 0.855 | 0.771 | 0.707 | 0.887 | 0.754 | 1.02 | 1 | 0.796 | 1.05 | 0.866 | 0.744 | 0.703 | 0.605 | 0.64 | 0.681
